For the series the following is noted: Liquid; for Critical pressure: Direct measurement; for Normal boiling temperature: Ebulliometric method (Recirculating still); for Critical temperature: Visual observation in a stirred cell.

Each structure is given as a SMILES string. ± gives the expanded uncertainty stated by the source.

Take `Cc1cccc2ccccc12` [1-methylnaphthalene]: the Critical pressure is listed as 3540 ± 220 kPa, the Normal boiling temperature is 244.6 ± 0.2 °C and the Critical temperature came out at 773 ± 16 K.
In the same order, the values of `Cc1ccc(C)c2ccccc12` [1,4-dimethylnaphthalene] are 2790 ± 160 kPa, 265.1 ± 0.2 °C and 778 ± 16 K.
In the same order, the values of `CCc1ccc2ccccc2c1` [2-ethylnaphthalene] are 2790 ± 160 kPa, 254.1 ± 0.2 °C and 763 ± 16 K.
In the same order, the values of `Cc1ccc2ccccc2c1` [2-methylnaphthalene] are 3300 ± 200 kPa, 241.1 ± 0.2 °C and 755 ± 16 K.
On to `Cc1cc(C)c2ccccc2c1` [1,3-dimethylnaphthalene], for which the Critical pressure came to 2740 ± 160 kPa, the Normal boiling temperature was 265.1 ± 0.2 °C and the Critical temperature came to 772 ± 16 K.

These data come from the NIST ThermoML archive (doi:10.1016/j.fluid.2013.08.041).
